Each structure is given as a SMILES string. Some results are limits rather than exact numbers.

The first assay deals with NAMPT enzyme (Homo sapiens (Human), UniProt P43490). The assay can be described thus: Enzyme Assay and NMN Detection (NAMPT reaction, fluorescence detection of NMN). It is filed as biochemical. To be noted: Table B-2; NAMPT activation, NMN formation. In a few lines: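 Reaction in 50 mM HEPES pH 7.5, 5 mM MgCl2, 0.1% Prionex, 0.005% Tween 20, 1 mM TCEP at room temperature, with 16 nM NAMPT, 120 uM ATP, 5 uM nicotinamide, 6.25 uM PRPP, 0.04 U/ml pyrophosphatase for 2 h. Stopped with acetophenone/KOH then formic acid; NMN quantified by fluorescence (ex380/em460) against calibration curve.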
NAMPT enzyme, sequence (P43490 whole entry, species assumed): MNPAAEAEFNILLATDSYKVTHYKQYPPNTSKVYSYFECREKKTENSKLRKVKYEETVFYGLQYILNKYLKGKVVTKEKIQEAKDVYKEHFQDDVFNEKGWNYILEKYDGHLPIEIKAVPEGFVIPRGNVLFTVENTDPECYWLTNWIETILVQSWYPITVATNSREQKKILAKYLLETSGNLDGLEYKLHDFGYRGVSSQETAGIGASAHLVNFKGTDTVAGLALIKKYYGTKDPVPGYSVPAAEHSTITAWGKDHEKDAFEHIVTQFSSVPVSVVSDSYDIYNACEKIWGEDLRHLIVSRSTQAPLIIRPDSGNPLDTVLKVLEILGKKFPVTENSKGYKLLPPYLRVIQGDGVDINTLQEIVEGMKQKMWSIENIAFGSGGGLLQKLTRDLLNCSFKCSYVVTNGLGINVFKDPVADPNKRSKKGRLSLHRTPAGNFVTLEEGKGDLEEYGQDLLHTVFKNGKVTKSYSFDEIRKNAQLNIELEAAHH
Regarding `O=C(NCc1ccncc1)Nc1ccc(C(=O)N2CCc3ccccc3C2)cc1` [1-(Pyridin-4-ylmethyl)-3-(4-(1,2,3,4-tetrahydroisoquinoline-2-carbonyl)phenyl)urea], the EC50 is 0.1 to 2 µM.
The same measure, in the same setting: the same measure for `O=C(NCc1ccncc1)Nc1ccc(C(=O)N2CCCC2)cc1` [1-(Pyridin-4-ylmethyl)-3-(4-(pyrrolidine-1-carbonyl)phenyl)urea]: 5 to 20 µM; for `O=C(NCc1ccncc1)Nc1ccc(OC(F)(F)F)cc1` [1-(Pyridin-4-ylmethyl)-3-(4-(trifluoromethoxy)phenyl)urea]: above 20 µM.
Still for that read-out and setting: the same measure for `O=C(NCc1ccncc1)Nc1ccc(C(F)(F)F)cc1` [1-(Pyridin-4-ylmethyl)-3-(4-(trifluoromethyl)phenyl)urea]: 5 to 20 µM; for `Cc1ccc(NC(=O)NCc2ccncc2)cc1` [1-(Pyridin-4-ylmethyl)-3-(p-tolyl)urea]: above 20 µM; for `O=C(NCc1ccncc1)Nc1ccc(S(=O)(=O)N2Cc3ccccc3C2)cc1` [1-[4-(1,3-Dihydro-isoindole-2-sulfonyl)-phenyl]-3-pyridin-4-ylmethyl-urea]: 0.1 to 2 µM.

The same assay, now with this note: Table B-3; NAMPT activation, NMN formation.
`O=C(NCc1ccccn1)Nc1ccc(OC(F)(F)F)cc1` [1-(Pyridin-2-ylmethyl)-3-(4-(trifluoromethoxy)phenyl)urea]: the concentration for a half-maximal effect (EC50) is above 20 µM.
The same measure, in the same setting: the same measure for `O=C(NCc1ccccn1)Nc1ccc(C(F)(F)F)cc1` [1-(Pyridin-2-ylmethyl)-3-(4-(trifluoromethyl)phenyl)urea]: above 20 µM; for `Cc1ccc(NC(=O)NCc2ccccn2)cc1` [1-(Pyridin-2-ylmethyl)-3-(p-tolyl)urea]: above 20 µM; for `O=C(NCc1cccnc1)Nc1ccc(OC(F)(F)F)cc1` [1-(Pyridin-3-ylmethyl)-3-(4-(trifluoromethoxy)phenyl)urea]: above 20 µM.
The same measure, in the same setting: the same measure for `O=C(NCc1cccnc1)Nc1ccc(C(F)(F)F)cc1` [1-(Pyridin-3-ylmethyl)-3-(4-(trifluoromethyl)phenyl)urea]: above 20 µM.
Same read-out and setting: the same measure for `Cc1ccc(NC(=O)NCc2cccnc2)cc1` [1-(Pyridin-3-ylmethyl)-3-(p-tolyl)urea]: above 20 µM.

Still in this assay, the particulars now being: Table B-4; NAMPT activation, NMN formation.
Regarding `Cc1ccc2c(-c3ccc(NC(=O)NCc4cn[nH]c4)cc3)nn(C)c2c1` [1-[4-(1,6-Dimethyl-1H-indazol-3-yl)-phenyl]-3-(1H-pyrazol-4-ylmethyl)-urea], the EC50 lay within 0.1 to 2 µM.
On the same count and under the same terms, the same measure for `CC(C)CN1CCC(S(=O)(=O)c2ccc(NC(=O)NCc3cn[nH]c3)cc2)CC1` [1-[4-(1-Isobutyl-piperidine-4-sulfonyl)-phenyl]-3-(1H-pyrazol-4-ylmethyl)-urea]: 2 to 5 µM; for `CC(C)n1cc(S(=O)(=O)c2ccc(NC(=O)NCc3cn[nH]c3)cc2)cn1` [1-[4-(1-Isopropyl-1H-pyrazole-4-sulfonyl)-phenyl]-3-(1H-pyrazol-4-ylmethyl)-urea]: below 0.1 µM; for `CC(C)N1CCC(S(=O)(=O)c2ccc(NC(=O)NCc3cn[nH]c3)cc2)CC1` [1-[4-(1-Isopropyl-piperidine-4-sulfonyl)-phenyl]-3-(1H-pyrazol-4-ylmethyl)-urea]: 2 to 5 µM.
Same read-out and setting: the same measure for `Cn1nc(-c2ccc(NC(=O)NCc3cn[nH]c3)cc2)c2ccccc21` [1-[4-(1-Methyl-1H-indazol-3-yl)-phenyl]-3-(1H-pyrazol-4-ylmethyl)-urea]: 0.1 to 2 µM; for `Cn1cc(S(=O)(=O)c2ccc(NC(=O)NCc3cn[nH]c3)cc2)cn1` [1-[4-(1-Methyl-1H-pyrazole-4-sulfonyl)-phenyl]-3-(1H-pyrazol-4-ylmethyl)-urea]: 0.1 to 2 µM.

Staying with this assay, now noted: Table B-5; NAMPT activation, NMN formation.
`O=C(NCc1cnco1)Nc1ccc(S(=O)(=O)c2ccccc2C(F)(F)F)cc1` [1-Oxazol-5-ylmethyl-3-[4-(2-trifluoromethyl-benzenesulfonyl)-phenyl]-urea] had a concentration for a half-maximal effect (EC50) of 0.1 to 2 µM.
The same measure, in the same setting: the same measure for `O=C(NCc1cnco1)Nc1ccc(S(=O)(=O)c2ccc(OC(F)(F)F)cc2)cc1` [1-Oxazol-5-ylmethyl-3-[4-(4-trifluoromethoxy-benzenesulfonyl)-phenyl]-urea]: 0.1 to 2 µM.
The same measure, in the same setting: the same measure for `O=C(NCc1cnco1)Nc1ccc(S(=O)(=O)c2cnccn2)cc1` [1-Oxazol-5-ylmethyl-3-[4-(pyrazine-2-sulfonyl)-phenyl]-urea]: 0.1 to 2 µM.
The same measure, in the same setting: the same measure for `O=C(NCc1cnco1)Nc1ccc(S(=O)(=O)c2cccnc2)cc1` [1-Oxazol-5-ylmethyl-3-[4-(pyridine-3-sulfonyl)-phenyl]-urea]: 0.1 to 2 µM; for `O=C(NCc1cnco1)Nc1ccc(S(=O)(=O)c2ncccn2)cc1` [1-Oxazol-5-ylmethyl-3-[4-(pyrimidine-2-sulfonyl)-phenyl]-urea]: 5 to 20 µM; for `O=C(NCc1cnco1)Nc1ccc(S(=O)(=O)c2nccs2)cc1` [1-Oxazol-5-ylmethyl-3-[4-(thiazole-2-sulfonyl)-phenyl]-urea]: 0.1 to 2 µM.
Turning to `Cc1ccccc1S(=O)(=O)c1ccc(NC(=O)NCc2cnco2)cc1` [1-Oxazol-5-ylmethyl-3-[4-(toluene-2-sulfonyl)-phenyl]-urea], the EC50 lay within 0.1 to 2 µM.
Turning to `Cc1cccc(S(=O)(=O)c2ccc(NC(=O)NCc3cnco3)cc2)c1` [1-Oxazol-5-ylmethyl-3-[4-(toluene-3-sulfonyl)-phenyl]-urea], the half-maximal effective concentration (EC50) was 0.1 to 2 µM.
The molecule `Cc1ccc(S(=O)(=O)c2ccc(NC(=O)NCc3cnco3)cc2)cc1` [1-Oxazol-5-ylmethyl-3-[4-(toluene-4-sulfonyl)-phenyl]-urea] gave a concentration for a half-maximal effect (EC50) of 2 to 5 µM.
Still for that read-out and setting: the same measure for `O=C(NCc1cnco1)Nc1ccc(S(=O)(=O)C2CCN(C3CCOCC3)CC2)cc1` [1-Oxazol-5-ylmethyl-3-{4-[1-(tetrahydro-pyran-4-yl)-piperidine-4-sulfonyl]-phenyl}-urea]: 0.1 to 2 µM.
Same read-out and setting: the same measure for `Cc1ccc2c(-c3ccc(NC(=O)NCc4cnco4)cc3)nn(C)c2c1` [1-[4-(1,6-Dimethyl-1H-indazol-3-yl)-phenyl]-3-oxazol-5-ylmethyl-urea]: 0.1 to 2 µM; for `CC(C)n1cc(S(=O)(=O)c2ccc(NC(=O)NCc3cnco3)cc2)cn1` [1-[4-(1-Isopropyl-1H-pyrazole-4-sulfonyl)-phenyl]-3-oxazol-5-ylmethyl-urea]: 0.1 to 2 µM.
The same measure, in the same setting: the same measure for `Cn1nc(-c2ccc(NC(=O)NCc3cnco3)cc2)c2ccccc21` [1-[4-(1-Methyl-1H-indazol-3-yl)-phenyl]-3-oxazol-5-ylmethyl-urea]: 2 to 5 µM.

Still in this assay, the particulars now being: Table B-6; NAMPT activation, NMN formation.
`O=C(NCc1ccncc1)Nc1ccc(S(=O)(=O)c2cccc(C(F)(F)F)c2)cc1` [1-(Pyridin-4-ylmethyl)-3-(4-((3-(trifluoromethyl)phenyl)sulfonyl)phenyl)urea]: the EC50 is below 0.1 µM.
The same measure, in the same setting: the same measure for `O=C(NCc1ccncc1)Nc1ccc(S(=O)(=O)c2ccncc2)cc1` [1-(Pyridin-4-ylmethyl)-3-(4-(pyridin-4-ylsulfonyl)phenyl)urea]: 0.1 to 2 µM; for `O=C(NCc1ccncc1)Nc1ccc(S(=O)(=O)c2cncs2)cc1` [1-Pyridin-4-ylmethyl)-3-(4-(thiazol-5-ylsulfonyl)phenyl)urea]: 0.1 to 2 µM; for `O=C(NCc1ccncc1)Nc1ccc(S(=O)(=O)c2ccccc2OC(F)(F)F)cc1` [1-Pyridin-4-ylmethyl-3-[4-(2-trifluoromethoxy-benzenesulfonyl)-phenyl]-urea]: below 0.1 µM.
Still for that read-out and setting: the same measure for `O=C(NCc1ccncc1)Nc1ccc(S(=O)(=O)c2ccccc2C(F)(F)F)cc1` [1-Pyridin-4-ylmethyl-3-[4-(2-trifluoromethyl-benzenesulfonyl)-phenyl]-urea]: 0.1 to 2 µM.
The same measure, in the same setting: the same measure for `O=C(NCc1ccncc1)Nc1ccc(S(=O)(=O)c2cccc(OC(F)(F)F)c2)cc1` [1-Pyridin-4-ylmethyl-3-[4-(3-trifluoromethoxy-benzenesulfonyl)-phenyl]-urea]: below 0.1 µM; for `O=C(NCc1ccncc1)Nc1ccc(S(=O)(=O)c2ccc(OC(F)(F)F)cc2)cc1` [1-Pyridin-4-ylmethyl-3-[4-(4-trifluoromethoxy-benzenesulfonyl)-phenyl]-urea]: 0.1 to 2 µM.
Turning to `O=C(NCc1ccncc1)Nc1ccc(S(=O)(=O)c2ncccn2)cc1` [1-Pyridin-4-ylmethyl-3-[4-(pyrimidine-2-sulfonyl)-phenyl]-urea], the EC50 lay in the range of 2 to 5 µM.
`Cc1ccccc1S(=O)(=O)c1ccc(NC(=O)NCc2ccncc2)cc1` [1-Pyridin-4-ylmethyl-3-[4-(toluene-2-sulfonyl)-phenyl]-urea] had an EC50 of 0.1 to 2 µM.
On the same count and under the same terms, the same measure for `Cc1cccc(S(=O)(=O)c2ccc(NC(=O)NCc3ccncc3)cc2)c1` [1-Pyridin-4-ylmethyl-3-[4-(toluene-3-sulfonyl)-phenyl]-urea]: 0.1 to 2 µM; for `Cc1ccc(S(=O)(=O)c2ccc(NC(=O)NCc3ccncc3)cc2)cc1` [1-Pyridin-4-ylmethyl-3-[4-(toluene-4-sulfonyl)-phenyl]-urea]: below 0.1 µM; for `Cc1ccc2c(-c3ccc(NC(=O)NCc4ccncc4)cc3)nn(C)c2c1` [1-[4-(1,6-Dimethyl-1H-indazol-3-yl)-phenyl]-3-pyridin-4-ylmethyl-urea]: 0.1 to 2 µM.
The same measure, in the same setting: the same measure for `CC(C)CN1CCC(S(=O)(=O)c2ccc(NC(=O)NCc3ccncc3)cc2)CC1` [1-[4-(1-Isobutyl-piperidine-4-sulfonyl)-phenyl]-3-pyridin-4-ylmethyl-urea]: 2 to 5 µM; for `CC(C)n1cc(S(=O)(=O)c2ccc(NC(=O)NCc3ccncc3)cc2)cn1` [1-[4-(1-Isopropyl-1H-pyrazole-4-sulfonyl)-phenyl]-3-pyridin-4-ylmethyl-urea]: below 0.1 µM; for `CC(C)N1CCC(S(=O)(=O)c2ccc(NC(=O)NCc3ccncc3)cc2)CC1` [1-[4-(1-Isopropyl-piperidine-4-sulfonyl)-phenyl]-3-pyridin-4-ylmethyl-urea]: 0.1 to 2 µM.
Still for that read-out and setting: the same measure for `Cn1nc(-c2ccc(NC(=O)NCc3ccncc3)cc2)c2ccccc21` [1-[4-(1-Methyl-1H-indazol-3-yl)-phenyl]-3-pyridin-4-ylmethyl-urea]: 0.1 to 2 µM.
